# Results taken from patent US6355799B1, “Substituted benzene compounds, process for their preparation, and herbicidal and defoliant compositions containing them” (ISK Americas Incorporated, priority 1997, dated 2002).
# Tests used:
# Type in all cases: in vivo
# [1] = system: ivyleaf morningglory (Ipomoea hederacea, IPOHE); assay: Pre-emerge test, greenhouse herbicide activity screening; settings: pre-emerge, rated 14 days after application, 0 = no damage, 100 = complete death
# How it was run: (§1)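 Sandy loam pots; pre-emerge: sown 1 d pre-spray, surface-watered after, then bottom-watered. Post-emerge: sown 8–21 d before, 2–3 leaf stage, + 0.25% v/v NIS, bottom-watered. Acetone, 187 l/ha track spray, 15–1000 g ai/ha. 0–100 injury score, day 14.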
# [2] = system: sicklepod (Cassia obtusifolia, CASOB); assay: as above; settings: pre-emerge, rated 14 days after application, 0 = no damage, 100 = complete death
# How it was run: as §1
# [3] = system: barnyardgrass (Echinochloa crus-galli, ECHCG); assay: as above; settings: pre-emerge, rated 14 days after application, 0 = no damage, 100 = complete death
# How it was run: as §1
# [4] = system: johnsongrass (Sorghum halepense, SORHA); assay: as above; settings: pre-emerge, rated 14 days after application, 0 = no damage, 100 = complete death
# How it was run: as §1
# [5] = system: velvetleaf (Abutilon theophrasti, ABUTH); assay: as above; settings: pre-emerge, rated 14 days after application, 0 = no damage, 100 = complete death
# How it was run: as §1
# [6] = system: large crabgrass (Digitaria sanguinalis, DIGSA); assay: as above; settings: pre-emerge, rated 14 days after application, 0 = no damage, 100 = complete death
# How it was run: as §1
# [7] = system: green foxtail (Setaria viridis, SETVI); assay: as above; settings: pre-emerge, rated 14 days after application, 0 = no damage, 100 = complete death
# How it was run: as §1
# [8] = system: lambsquarters (Chenopodium album, CHEAL); assay: as above; settings: pre-emerge, rated 14 days after application, 0 = no damage, 100 = complete death
# How it was run: as §1
# [9] = system: redroot pigweed (Amaranthus retroflexus, AMARE); assay: as above; settings: pre-emerge, rated 14 days after application, 0 = no damage, 100 = complete death
# How it was run: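 Herbicidal damage is scored 0 (none) to 100 (complete plant death) two weeks after a simulated field spray. Rates span 15–1000 g ai/ha, delivered in acetone at 187 l/ha. For post-emergence treatments, plants have 2–3 leaves and the spray carries 0.25% v/v non-ionic surfactant.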
# [10] = system: johnsongrass (Sorghum halepense, SORHA); assay: Post-emerge test, greenhouse herbicide activity screening; settings: Sorghum halepense, post-emergence, 336 h, phytotoxicity rating 0-100 (0 no damage, 100 complete death), 14 days after application, read-out: Post-emerge Herbicidal Activity SORHA
# How it was run: as §1
# [11] = system: large crabgrass (Digitaria sanguinalis, DIGSA); assay: as above; settings: Digitaria sanguinalis, post-emergence, 336 h, phytotoxicity rating 0-100 (0 no damage, 100 complete death), 14 days after application, read-out: Post-emerge Herbicidal Activity DIGSA
# How it was run: as §1
# [12] = system: green foxtail (Setaria viridis, SETVI); assay: as above; settings: Setaria viridis, post-emergence, 336 h, phytotoxicity rating 0-100 (0 no damage, 100 complete death), 14 days after application, read-out: Post-emerge Herbicidal Activity SETVI
# How it was run: as §1
# [13] = system: lambsquarters (Chenopodium album, CHEAL); assay: as above; settings: Chenopodium album, post-emergence, 336 h, phytotoxicity rating 0-100 (0 no damage, 100 complete death), 14 days after application, read-out: Post-emerge Herbicidal Activity CHEAL
# How it was run: as §1
structure (smiles),measurement,setting,value
"COc1c(Cl)cc(F)c(-n2c(=O)cc(C(F)(F)F)n(C)c2=O)c1N(C(C)=O)C(C)=O [Compound 2-2, 3-(4-chloro-2-diacetylamino-6-fluoro-3-methoxyphenyl)-1-methyl-6-trifluoromethyl-2,4(1H, 3H)-pyrimidinedione]","Pre-emerge Herbicidal Activity IPOHE (phytotoxicity rating, scale 0-100)",[1]; 63 g ai/ha,90
same,"Pre-emerge Herbicidal Activity IPOHE (phytotoxicity rating, scale 0-100)",[1]; 250 g ai/ha,100
same,"Pre-emerge Herbicidal Activity CASOB (phytotoxicity rating, scale 0-100)",[2]; 63 g ai/ha,60
same,"Pre-emerge Herbicidal Activity CASOB (phytotoxicity rating, scale 0-100)",[2]; 250 g ai/ha,90
same,"Pre-emerge Herbicidal Activity ECHCG (phytotoxicity rating, scale 0-100)",[3]; 63 g ai/ha,30
same,"Pre-emerge Herbicidal Activity ECHCG (phytotoxicity rating, scale 0-100)",[3]; 250 g ai/ha,90
same,"Pre-emerge Herbicidal Activity SORHA (phytotoxicity rating, scale 0-100)",[4]; 63 g ai/ha,60
same,"Pre-emerge Herbicidal Activity SORHA (phytotoxicity rating, scale 0-100)",[4]; 250 g ai/ha,90
same,"Pre-emerge Herbicidal Activity ABUTH (phytotoxicity rating, scale 0-100)",[5]; 63 g ai/ha,100
same,"Pre-emerge Herbicidal Activity ABUTH (phytotoxicity rating, scale 0-100)",[5]; 250 g ai/ha,100
same,"Pre-emerge Herbicidal Activity DIGSA (phytotoxicity rating, scale 0-100)",[6]; 63 g ai/ha,90
same,"Pre-emerge Herbicidal Activity DIGSA (phytotoxicity rating, scale 0-100)",[6]; 250 g ai/ha,95
same,"Pre-emerge Herbicidal Activity SETVI (phytotoxicity rating, scale 0-100)",[7]; 63 g ai/ha,90
same,"Pre-emerge Herbicidal Activity SETVI (phytotoxicity rating, scale 0-100)",[7]; 250 g ai/ha,100
same,"Pre-emerge Herbicidal Activity CHEAL (phytotoxicity rating, scale 0-100)",[8]; 63 g ai/ha,100
same,"Pre-emerge Herbicidal Activity CHEAL (phytotoxicity rating, scale 0-100)",[8]; 250 g ai/ha,100
same,"Pre-emerge Herbicidal Activity AMARE (phytotoxicity rating, scale 0-100)",[9]; 63 g ai/ha,100
same,"Pre-emerge Herbicidal Activity AMARE (phytotoxicity rating, scale 0-100)",[9]; 250 g ai/ha,100
same,pest or weed control at 63 g/ha,[10]; 63 g ai/ha,0%
same,pest or weed control at 250 g/ha,[10]; 250 g ai/ha,50%
same,pest or weed control at 63 g/ha,[11]; 63 g ai/ha,0%
same,pest or weed control at 250 g/ha,[11]; 250 g ai/ha,30%
same,pest or weed control at 63 g/ha,[12]; 63 g ai/ha,0%
same,pest or weed control at 250 g/ha,[12]; 250 g ai/ha,30%
same,pest or weed control at 63 g/ha,[13]; 63 g ai/ha,60%
same,pest or weed control at 250 g/ha,[13]; 250 g ai/ha,100%
